Key:
TEAD4 = TEAD4 (Homo sapiens, UniProt Q15561); test: Thermal shift assay TEAD4; type: binding
Outline: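 Compounds tested at 1 and 10 μM (0.1% DMSO, PBS) against TEAD4 protein at 0.1 mg/ml final. Melting followed by thermal shift dye fluorescence during a qPCR instrument ramp.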

TEAD2 = TEAD2 (Homo sapiens, UniProt Q15562); test: Thermal shift assay TEAD2; type: binding
Outline: (§1)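 Protein melt reactions contained TEAD1 (0.2 mg/ml final) or TEAD2 (0.08 mg/ml final) plus compound at 1 or 10 μM in 0.1% DMSO. Thermal unfolding was followed by dye fluorescence on a qPCR instrument.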

NCI-H226 cells = test: Cell growth assay (CellTiter-Glo); type: cell-based, human; conditions: Homo sapiens, NCI-H226, 168 h, 7 days treatment, CellTiter-Glo luminescence, read-out: H226 CTG IC50
Method: Example A: Cell Growth Assay
CellTiter-Glo reagent (CTG reagent, Promega, G7573).
[…] Also seeding an extra plate as Day 0 control measurement. The microplates were incubated at 37° C., 5% CO2 overnight.
Compounds were 3-fold serial diluted in DMSO and final top-concentration was […], 10 points. 0.3% DMSO as vehicle control. In addition, […] of CTG reagent was added into the extra plate and incubated at room temperature for 30 minutes and detected luminescence signals as Day 0 control by using EnVision (PerkinElmer, 2104 Mutilabel Reader).
Incubated other compounds treated plates at 37° C. for another 7 days and […] of CTG reagent was added into the plates and incubated at room temperature for 30 minutes and detected luminescence signals.
Day 0 luminescence signals were used as negative control or baseline. • Signalday0=average luminescence signals of Day 0 control cells. • Signalblank control=average luminescence signals of blank control. • SignalDMSO vehicle control=average luminescence signals of Day 7 DMSO vehicle control cells. • Signalcpds treatment=luminescence signals of Day 7 compounds treatment cells. Inhibition %=1−(Signalcpds treatment−Signalblank control)/(SignalDMSO vehicle control−Signalblank control)*100.
(Inhibitory concentration 50% (IC50) and maximum inhibition % were calculated using dose response curves.

TEAD3 = TEAD3 (Homo sapiens, UniProt Q99594); test: Thermal shift assay TEAD3; type: binding
Chain of TEAD3 (Q99594 whole entry, species assumed): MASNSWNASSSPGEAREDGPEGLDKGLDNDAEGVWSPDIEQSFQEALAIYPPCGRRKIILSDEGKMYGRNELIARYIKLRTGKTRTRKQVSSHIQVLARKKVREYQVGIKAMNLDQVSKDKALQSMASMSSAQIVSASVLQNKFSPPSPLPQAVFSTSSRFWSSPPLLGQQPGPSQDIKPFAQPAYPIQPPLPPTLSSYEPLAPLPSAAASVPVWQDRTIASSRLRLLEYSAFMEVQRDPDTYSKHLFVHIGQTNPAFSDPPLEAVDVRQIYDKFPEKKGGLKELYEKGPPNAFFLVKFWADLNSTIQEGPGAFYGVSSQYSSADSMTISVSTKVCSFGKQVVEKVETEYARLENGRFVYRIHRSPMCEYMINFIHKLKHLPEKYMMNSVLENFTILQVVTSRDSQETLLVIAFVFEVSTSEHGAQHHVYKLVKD
Outline: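 Compounds at 1 or 10 μM (0.1% DMSO, PBS dilution) mixed with 0.1 mg/ml final TEAD3 and thermal shift dye, then run through a qPCR melt to follow protein unfolding.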

TEAD1 = TEAD1 (Homo sapiens, UniProt P28347); test: Thermal shift assay TEAD1; type: binding
Chain of TEAD1 (P28347 whole entry, species assumed): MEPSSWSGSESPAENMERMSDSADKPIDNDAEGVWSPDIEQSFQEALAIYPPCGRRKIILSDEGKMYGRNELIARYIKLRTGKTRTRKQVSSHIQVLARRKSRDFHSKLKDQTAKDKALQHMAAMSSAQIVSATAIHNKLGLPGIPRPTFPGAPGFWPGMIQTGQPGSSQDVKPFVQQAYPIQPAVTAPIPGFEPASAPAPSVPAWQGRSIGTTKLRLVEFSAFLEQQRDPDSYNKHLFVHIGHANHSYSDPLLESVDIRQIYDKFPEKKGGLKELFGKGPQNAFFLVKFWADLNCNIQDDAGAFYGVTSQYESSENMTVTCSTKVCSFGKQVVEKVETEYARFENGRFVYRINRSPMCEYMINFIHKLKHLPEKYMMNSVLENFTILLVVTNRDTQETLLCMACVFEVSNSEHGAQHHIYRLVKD
Outline: as §1

Chain of TEAD2 (Q15562 whole entry, species assumed): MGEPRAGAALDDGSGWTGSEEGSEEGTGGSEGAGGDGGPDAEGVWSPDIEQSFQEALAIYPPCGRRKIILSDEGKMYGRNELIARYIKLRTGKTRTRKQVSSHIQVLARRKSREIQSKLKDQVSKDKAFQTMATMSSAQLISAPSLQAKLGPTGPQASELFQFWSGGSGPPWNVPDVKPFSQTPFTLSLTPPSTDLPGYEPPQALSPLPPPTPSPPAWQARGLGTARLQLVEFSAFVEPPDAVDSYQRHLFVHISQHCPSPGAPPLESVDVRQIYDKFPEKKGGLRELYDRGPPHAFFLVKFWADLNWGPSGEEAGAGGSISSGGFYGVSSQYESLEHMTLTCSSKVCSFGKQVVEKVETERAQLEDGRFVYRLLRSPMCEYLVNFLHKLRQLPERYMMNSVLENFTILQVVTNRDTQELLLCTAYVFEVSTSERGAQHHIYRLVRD
Chain of TEAD4 (Q15561 whole entry, species assumed): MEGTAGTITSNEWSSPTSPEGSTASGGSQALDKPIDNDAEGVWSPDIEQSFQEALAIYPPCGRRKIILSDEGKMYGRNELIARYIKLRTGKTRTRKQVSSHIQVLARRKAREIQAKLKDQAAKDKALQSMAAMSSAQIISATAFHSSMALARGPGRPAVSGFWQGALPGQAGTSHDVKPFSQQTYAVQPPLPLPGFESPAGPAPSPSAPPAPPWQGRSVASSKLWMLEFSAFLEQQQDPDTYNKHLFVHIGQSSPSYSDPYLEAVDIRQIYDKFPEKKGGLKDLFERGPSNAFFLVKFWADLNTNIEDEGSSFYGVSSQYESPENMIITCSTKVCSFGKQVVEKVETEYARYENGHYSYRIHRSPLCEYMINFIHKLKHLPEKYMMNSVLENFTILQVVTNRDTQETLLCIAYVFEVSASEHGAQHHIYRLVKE

Compound | TEAD4 ΔTm (TEAD4) | TEAD2 ΔTm (TEAD2) | IC50 (NCI-H226 cells) | TEAD3 ΔTm (TEAD3) | TEAD1 ΔTm (TEAD1)
[2H]C([2H])([2H])NC(=O)[C@@H]1C[C@H]1c1cc(Oc2ccc(C(F)(F)F)cc2)cc2cn(C)nc12 (single isomer, unassigned) [Example 52] | 4.3 °C | 9.8 °C | 1000 to 30000 nM | −0.5 °C | 4.7 °C
[2H]C([2H])([2H])NC(=O)[C@H]1CC1c1cc(Oc2ccc(C(F)(F)F)cc2)cc2cn(C)nc12 (single isomer, unassigned) [Example 53] | 10.5 °C | 13.7 °C | < 100 nM | 9.8 °C | 9.2 °C
C[C@@H](CO)NC(=O)[C@@H]1CC1c1cc(Oc2ccc(C(F)(F)F)cc2)cc2cn(C)nc12 (single isomer, unassigned) [Example 54] | 9.5 °C | 9.8 °C | < 100 nM | 1.2 °C | 8.5 °C
C[C@H](CO)NC(=O)[C@@H]1CC1c1cc(Oc2ccc(C(F)(F)F)cc2)cc2cn(C)nc12 (single isomer, unassigned) [Example 55] | 11.5 °C | 11.1 °C | < 100 nM | 10.2 °C | 11.3 °C
Cn1cc2cc(Oc3ccc(C(F)(F)F)cc3)cc([C@@H]3C[C@H]3C(=O)N3CC(C)(O)C3)c2n1 (single isomer, unassigned) [Example 60] | 12.3 °C | 12.7 °C | < 100 nM | 11.2 °C | 9.5 °C
Cn1cc2cc(Oc3ccc(C(F)(F)F)cc3)cc([C@@H]3C[C@H]3C(=O)N3CCO[C@H](CO)C3)c2n1 (single isomer, unassigned) [Example 61] | 10.4 °C | 12.2 °C | < 100 nM | 0.8 °C | 9.3 °C
Cn1cc2cc(Oc3ccc(C(F)(F)F)cc3)cc([C@@H]3C[C@H]3C(=O)N3CCO[C@@H](CO)C3)c2n1 (single isomer, unassigned) [Example 62] | 7.7 °C | 10.6 °C | < 100 nM | 1.2 °C | 7.4 °C
Cn1cc2cc(Oc3ccc(C(F)(F)F)cc3)cc([C@@H]3C[C@H]3C(=O)NCC#N)c2n1 (single isomer, unassigned) [Example 66] | 11.7 °C | 14.7 °C | < 100 nM | 10.6 °C | 11.1 °C
Cn1cc2cc(Oc3ccc(C(F)(F)F)cc3)cc([C@@H]3C[C@H]3C(=O)NC3(C#N)CC3)c2n1 (single isomer, unassigned) [Example 67] | 7.9 °C | 9.9 °C | < 100 nM | 1.7 °C | 8.8 °C
C[C@@H](C#N)NC(=O)[C@@H]1C[C@H]1c1cc(Oc2ccc(C(F)(F)F)cc2)cc2cn(C)nc12 (single isomer, unassigned) [Example 69] | 12.9 °C | 13.9 °C | < 100 nM | 11.6 °C | 10.9 °C
Cn1cc2cc(Oc3ccc(C(F)(F)F)cc3)cc([C@@H]3C[C@H]3C(=O)N3CC(C#N)C3)c2n1 (single isomer, unassigned) [Example 70] | 8.6 °C | 11.7 °C | < 100 nM | 7.0 °C | 8.4 °C
Cn1cc2cc(Oc3ccc(C(F)(F)F)cc3)cc([C@@H]3C[C@H]3C(=O)NC#N)c2n1 (single isomer, unassigned) [Example 71] | 12.2 °C | 13.4 °C | 1000 to 30000 nM | 12.2 °C | 11.2 °C
Cn1cc2cc(Oc3ccc(C(F)(F)F)cc3)cc(C3C[C@H]3C(=O)N3CCC[C@@H]3C#N)c2n1 (single isomer, unassigned) [Example 72] | 4.7 °C | 8.6 °C | < 100 nM | 1.7 °C | 3.5 °C
Cn1cc2cc(Oc3ccc(C(F)(F)F)cc3)cc(C3C[C@H]3C(=O)N3CCC[C@H]3C#N)c2n1 (single isomer, unassigned) [Example 73] | 12.1 °C | 15.1 °C | < 100 nM | 13.9 °C | 9.5 °C
Cn1cc2cc(Oc3ccc(C(F)(F)F)cc3)cc(C3C[C@H]3C(=O)N3CCC(O)CC3)c2n1 (single isomer, unassigned) [Example 74] | 10.2 °C | 12.9 °C | < 100 nM | 11.4 °C | 10.7 °C
Cn1cc2cc(N3CCC4(CCCC4)CC3)cc(C3C[C@H]3C(=O)N3C[C@H](O)[C@@H](O)C3)c2n1 (single isomer, unassigned) [Example 86] | 2.6 °C | 2.7 °C | 1000 to 30000 nM | 0.2 °C | 2.6 °C

Now from value to molecule:

TEAD4 ΔTm (TEAD4) | TEAD2 ΔTm (TEAD2) | IC50 (NCI-H226 cells) | TEAD3 ΔTm (TEAD3) | TEAD1 ΔTm (TEAD1) | Compound
5.2 °C | 10.2 °C | 100 to 500 nM | 1.4 °C | 5.2 °C | CNC(=O)[C@@H]1C[C@H]1c1cc(Oc2ccc(C(F)(F)F)cc2)cc2cn(C)nc12 (single isomer, unassigned) [Example 34a]
2.6 °C | 6.5 °C | 500 to 1000 nM | −0.3 °C | 5.4 °C | CC(C)NC(=O)[C@@H]1C[C@H]1c1cc(Oc2ccc(C(F)(F)F)cc2)cc2cn(C)nc12 (single isomer, unassigned) [Example 56a]
12.5 °C | 10.0 °C | < 100 nM | 8.1 °C | 9.1 °C | CC(C)NC(=O)[C@H]1C[C@@H]1c1cc(Oc2ccc(C(F)(F)F)cc2)cc2cn(C)nc12 (single isomer, unassigned) [Example 56b]
7.9 °C | 4.7 °C | 100 to 500 nM | 0.4 °C | 6.9 °C | Cn1cc2cc(Oc3ccc(C(F)(F)F)cc3)cc([C@H]3C[C@@H]3C(=O)N[C@@H](CO)c3ccccn3)c2n1 (single isomer, unassigned) [Example 59a]
15.6 °C | 11.3 °C | 100 to 500 nM | 13.1 °C | 9.4 °C | Cn1cc2cc(Oc3ccc(C(F)(F)F)cc3)cc([C@@H]3C[C@H]3C(=O)N[C@@H](CO)c3ccccn3)c2n1 (single isomer, unassigned) [Example 59b]
11.6 °C | 11.9 °C | < 100 nM | 10.1 °C | 9.3 °C | Cn1cc2cc(Oc3ccc(C(F)(F)F)cc3)cc([C@@H]3C[C@H]3C(=O)N3CC[C@@H](O)[C@H](O)C3)c2n1 (single isomer, unassigned) [Example 75b]
4.4 °C | 7.1 °C | < 100 nM | 1.8 °C | 7.4 °C | Cc1cn2cc(Oc3ccc(C(F)(F)F)cc3)cc([C@H]3C[C@@H]3C(=O)N3CC(O)C3)c2n1 (single isomer, unassigned) [Example 85b]

— patent US12103915B2, “TEAD inhibitors and methods of uses thereof” (Insilico Medicine IP Limited, priority 2022, dated 2024)
